Laboratory results from patent publication US20070043115A1, “Use of choline to prevent thrombosis associated with total parenteral nutrition” (priority 2005, published 2007).
Read-outs that look alike come from different tables or passages of the source.

How the values were obtained:
[1] = Method: Prior to use, the appropriate amount of choline solution is transferred from the sterile vial and is added to the nutrient solution which typically is contained in a TPN bag.
[2] = tested on: plasma levels of homocysteine
Method: Two female normal volunteers were infused with C-13-labeled choline and plasma levels of homocysteine were determined before and after infusion.

C[N+](C)(C)CCO.[Cl-] [Choline chloride, choline chloride]
effects on the TPN solution turbidity, pH, or amino acid concentrations ([1]; choline chloride added to TPN nutrient solutions): no adverse affects | stable in various TPN nutrient solutions ([1]; various TPN nutrient solutions): at least 30 days

C-13-labeled choline
Plasma concentration of homocysteine after infusion ([2]; first normal volunteer, 6.62 umol/L before infusion): 5.14 µmol/L | Plasma concentration of homocysteine after infusion ([2]; second normal volunteer, 7.47 umol/L before infusion): 6.64 µmol/L
